Data from publication PMC12469161, “Anti-cancer compound screening identifies Aurora Kinase A inhibition as a means to favor CRISPR/Cas9 gene correction over knock-out” (PLOS One, 2025).
Read-outs that look alike come from different tables or passages of the source.

Legend:
[1] = system: HEK293T-eGFP cells; experiment: MTT cytotoxicity assay, 72 hours; type: cell-based
Experimental: Cells were cultured for 16–24 hours under standard culturing conditions (5% CO2, 37 °C). […] All dose ranges were added in duplicate, followed by 72 hours of incubation. Cell viability was determined using a tetrazolium based metabolic activity assay. Briefly, 5 µL of 3-(4.5-dimethylthiazol-2-yl)-2,5-diphenyltetrazolium bromide (MTT) solution (5 mg/mL MTT in sterile PBS) was added per well, and the microplates were incubated for 4 hours at 37°C and 5% CO2 in a cell culture incubator. Next, 40 µL of 10% SDS/0.01 M HCl was added per well, and the microplates were incubated for 24–72 hours at 37°C and 5% CO2 in a cell culture incubator. Subsequently the absorbance at 570 nm and background absorbance at 720 nm were measured using the Spectramax i3x (Molecular Devices, San Jose, USA). Subsequently, the absorbance values at 720 nm were subtracted from the absorbance values at 570 nm, and the corresponding values were used to plot dose-response curves.
The data was normalized to the DMSO-treated cells (defined as 100% viability) and the empty controls (defined as 0% viability).

[2] = system: eGFP locus in HEK293T-eGFP cells (HDR vs NHEJ); experiment: CRISPR gene-editing outcome (eGFP to BFP conversion, flow cytometry) with CRISPR-Cas9 LNP; type: cell-based; conditions: for preferential activation of HDR over NHEJ in hit validation: narrowed dose range, triplicate, vs LNP only; for effect on the NHEJ and HDR outcomes: validated hits, Fig 2B; for effect on relative HDR in the compound screen: up to three dosages based on IC50, single measurements
Experimental: (§1) Compounds were assessed in three dosages to assess the effects on gene-editing efficacy. […] Cells were incubated with these compounds for 24 hours prior to LNP addition. LNP were added to all wells at a final concentration of 20 nM SpCas9 to achieve robust genome editing. After 24 hours of co-incubation, medium was refreshed and cells were transferred to a 48 well plate for further culturing. Six days after adding compounds, cells were processed for flow cytometric analysis of the gene knock-out and gene-correction efficiencies. Briefly, a ssDNA template was used carrying two nucleotide mutations to convert the eGFP sequence to that of a blue fluorescent protein (BFP), as well as mutating the PAM sequence to ensure robust HDR. The sgRNA spacer sequence was 5’-[…]-3’, and the HDR template sequence was 5’-[…]-3’.
Flow cytometry using the BD FACS Canto II (Becton Dickinson) was used to determine cells undergoing NHEJ (eGFP and BFP negative population) and HDR (eGFP negative, BFP positive). Data analysis was performed using Flowlogic (version 8.7). Graphpad PRISM (version 9.3.1) was used for statistical analysis and preparing graphs.
(§2) The percentage of HDR relative to total gene editing in a given cell population (hereafter named Relative HDR (% of edited cells) was calculated by dividing the absolute HDR population by the sum of gene-edited cells found in the BFP+ and eGFP- gates. Absolute HDR (% of all cells) and Absolute NHEJ (% of all cells) were analyzed where appropriate. The gating strategy is given in S1 Fig in S1 File.

[3] = system: Hepa 1–6-eGFP cells; experiment: MTS cell viability and morphology, 5 days; type: cell-based, murine; conditions: 0.3 µM, after 5 days, vs untreated control
Experimental: A narrower cytotoxicity range was determined by exposing cells to 0.1–1 µM of the tested compounds. 48 hours after treatment started, cells were washed and harvested using medium and one third of the volume was transferred to a fresh 96 well plate, analogous to how cells are treated during gene editing experiments. Subsequently, cells were cultured for another 3–5 days. In the case of 5 days, one third of the cells was again transferred into a fresh 96-well plate on day 3 to allow enough space for logarithmic cell growth during the additional incubation time. Cell viability was determined by the Promega One Step MTS assay (Promega, Madison, USA) using the manufacturer’s specifications. Relative cell viability for the Hepa 1–6-eGFP cells was calculated by normalizing the compound conditions to controls treated with DMSO only or DMSO plus gene editing formulations. For the HEK293T cells, the absolute absorbance at […] was used as it was more representative of the relative cell viability between samples.
Cell morphology was assessed using the Nikon Eclipse Ti2 microscope (Nikon Europe, Amstelveen, The Netherlands). Pictures were acquired at 10x magnification with a Nikon DSLR 10 camera using the same imaging settings within each experiment set (Nikon Europe, Amstelveen, The Netherlands).

[4] = system: eGFP locus in Hepa 1–6-eGFP cells (HDR vs NHEJ); experiment: CRISPR gene-editing outcome (eGFP to BFP, flow cytometry) with ProDeliverIN CRISPR; type: cell-based, murine; conditions: Hepa 1–6-eGFP
Text: Lipid nanoparticles (LNP) carrying SpCas9, sgRNA and HDR template DNA were formulated using the components and molecular ratios described previously. 1,1′-((2-(4-(2-((2-(bis(2-hydroxydodecyl)amino)ethyl)(2-hydroxydodecyl)amino)ethyl)piperazin-1-yl)ethyl)azanediyl)bis(dodecan-2-ol) (C12-200) was acquired from CordonPharma (Plankstadt, Germany) and used as the ionizable lipid in the formulation. 1,2-dioleoyl-sn-glycero-3-phosphoethanolamine (DOPE) was acquired from Lipoid GmbH (Steinhausen, Switzerland), Cholesterol and 1,2-dimyristoyl-rac-glycero-3-methoxypolyethylene glycol-2000 (PEG-DMG) were acquired from Sigma-Aldrich, and 1,2-dioleoyl-3-trimethylammonium-propane (DOTAP) was acquired from Merck (Darmstadt, Germany). LNP were produced using microfluidic mixing with the Dolomite Microfluidics system (Dolomite Microfluidics, Royston, United Kingdom) and herring-bone micromixer chip with hydrophilic coating (Dolomite Microfluidics, catalogue number 3200401). A total flow rate of 1.5 mL/min and flow rate ratio of 2:1 were used between an aqueous outer phase containing SpCas9, sgRNA and HDR template in nuclease free water, and the lipids in 100% ethanol in the inner phase, respectively. The resulting LNP were diluted 4 times in Dulbecco’s PBS (Sigma-Aldrich). In the experiments using the Hepa 1–6 eGFP cells, ProDeliverIN CRISPR (OZ Biosciences, San Diego, USA) was used as reported previously.
as §1
Flow cytometry using the BD FACS Canto II (Becton Dickinson) was used to determine cells undergoing NHEJ (eGFP and BFP negative population) and HDR (eGFP negative, BFP positive). […]
as §2

[5] = 72 h, HEK293T-eGFP cells, 3 days of incubation, MTT, read-out: IC50
[6] = HEK293T-eGFP cells, 3 days of incubation, MTT, read-out: IC50

`O=C(NC1CCNCC1)c1[nH]ncc1NC(=O)c1c(Cl)cccc1Cl` [AT7519] showed an IC50 [1, 5] of 438 nM.
Work on `CCN1CCN(Cc2ccc(Nc3ncc(F)c(-c4cc(F)c5nc(C)n(C(C)C)c5c4)n3)nc2)CC1` [Abemaciclib] yielded an IC50 [1, 5] of 1070 nM.
`C=CCn1c(=O)c2cnc(Nc3ccc(N4CCN(C)CC4)cc3)nc2n1-c1cccc(C(C)(C)O)n1` [Adavosertib] showed an IC50 [1, 5] of 227 nM.
For `CNc1nc(-c2nc3ccc(N4CCN(C)CC4)cc3n2Cc2ccccc2)cn2c(C)nnc12` [BI 894999], the IC50 [1, 5] was 582 nM.
For `O=C(/C=C/c1cccc(S(=O)(=O)Nc2ccccc2)c1)NO` [Belinostat], the IC50 [1, 5] was 1100 nM, the “preferential activation of HDR over NHEJ in hit validation” value [2] was “strong dose-dependent preferential activation of HDR over NHEJ” and the “effect on the NHEJ and HDR outcomes” value [2] was “increased both NHEJ and HDR”.
Work on `CNCc1ccc(-c2cc(-c3nc(-c4ccc(S(=O)(=O)C(C)C)cc4)cnc3N)on2)cc1` [Berzosertib] yielded an IC50 [1, 5] of 335 nM.
With `Cc1sc2c(c1C)C(c1ccc(Cl)cc1)=N[C@@H](CC(=O)Nc1ccc(O)cc1)c1nnc(C)n1-2` [Birabresib] the IC50 [1, 5] was 540 nM.
For `Cc1sc2c(c1C)C(c1ccc(Cl)cc1)=N[C@@H](CC(N)=O)c1nnc(C)n1-2` [CPI-203], the IC50 [1, 6] was 651 nM.
`CC(C)c1c(-c2ccccc2)[nH]c2c(C#N)cnn2c1=O` [CPI-455] was tested, and the IC50 [1, 6] was > 10000 nM.
`CC[C@H](Nc1nc(NCc2cnc(C)cc2C)c2ncn(C(C)C)c2n1)[C@@H](C)O` [CYC065] gave an IC50 [1, 5] of 255 nM.
`C[C@@H]1COCCN1c1cc(C2([S@](C)(=N)=O)CC2)nc(-c2cc[nH]c3nccc2-3)n1` [Ceralasertib] was tested, and the IC50 [1, 5] was 1840 nM.
`CO[C@@H](C(=O)N1Cc2n[nH]c(NC(=O)c3ccc(N4CCN(C)CC4)cc3)c2C1)c1ccccc1` [Danusertib, danusertib] was tested, and the “cell morphology by microscopy” value [3] was “not disrupted” and the “dosage with overall high efficacy and manageable toxicity” value [4] was 0.3 µM.
With `Nc1ccccc1NC(=O)c1ccc(CNC(=O)OCc2cccnc2)cc1` [Entinostat] the IC50 [1, 5] was 3560 nM and the “effect on relative HDR in the compound screen” value (from here on “effect on relative HDR”) [2] was “did not show the same effect”.
For `Nc1cc(F)ccc1NC(=O)c1ccc(CNC(=O)/C=C/c2cccnc2)cc1` [Epidaza], the IC50 [1, 5] was > 10000 nM and the “effect on relative HDR” value [2] was “did not show an effect towards improving HDR”.
In the case of `C[C@@H](Oc1cc(-n2cnc3ccc(CN4CCN(C)CC4)cc32)sc1C(N)=O)c1ccccc1C(F)(F)F` [GSK461364], the IC50 [1, 5] is reported as 8.35 nM.
For `CCn1cc(-c2ccnc3[nH]c(-c4cccc(CN(C)C)c4)cc23)c(-c2ccc(NC(=O)N(C)C)cc2)n1` [GSK1070916], the IC50 [1, 5] was 1390 nM and the “effect on relative HDR” value [2] was “did not show an effect toward relative HDR activation”.
For `Cc1ncc(Cl)cc1NCc1ccc(C(=O)N[C@@H](CC2CCCC2)C(=O)NC2CC2)s1` [GSK2830371], the IC50 [1, 5] was > 10000 nM.
Work on `CCn1cc(-c2cccc(C(F)(F)F)c2)c2sc(C(=N)NC3CCS(=O)(=O)CC3)cc2c1=O` [I-BRD9] yielded an IC50 [1, 6] of 8940 nM.
With `Cc1sc2c(c1C)C(c1ccc(Cl)cc1)=N[C@@H](CC(=O)O)c1nnc(C)n1-2` [JQ-1 COOH] the IC50 [1, 6] was > 10000 nM.
For `O=c1cc(-c2cccc3c2Sc2ccccc2S3)oc(N2CCOCC2)c1` [KU-55933], the IC50 [1, 5] was > 10000 nM.
In the case of `C[C@@H]1CN(CC(=O)Nc2ccc3c(c2)Cc2cccc(-c4cc(=O)cc(N5CCOCC5)o4)c2S3)C[C@H](C)O1` [KU-60019], the IC50 [1, 5] is reported as > 10000 nM.
With `Cc1cc(C)cc(C(=O)NOCCCCCC(=O)NO)c1` [LMK-235] the IC50 [1, 6] was 1790 nM.
`O=C(c1cc(Cc2n[nH]c(=O)c3ccccc23)ccc1F)N1CCN(C(=O)C2CC2)CC1` [Olaparib] was tested, and the IC50 [1, 5] was > 10000 nM.
In the case of `COc1ccc(Cn2ccc3ccc(C(=O)NO)cc32)cc1` [PCI-34051], the IC50 [1, 6] is reported as > 10000 nM.
With `CC(=O)O[C@H]1C(=O)[C@@]2(C)[C@H]([C@H](OC(=O)c3ccccc3)[C@]3(O)C[C@H](OC(=O)[C@H](O)[C@@H](NC(=O)c4ccccc4)c4ccccc4)C(C)=C1C3(C)C)[C@]1(OC(C)=O)CO[C@@H]1C[C@@H]2O` [Paclitaxel] the IC50 [1, 5] was 3.12 nM.
For `C[C@]12CCCN1CC1=NNC(=O)c3cc(F)cc4[nH]c2c1c34` [Pamiparib], the IC50 [1, 5] was > 10000 nM.
With `Cc1[nH]c2ccccc2c1CCNCc1ccc(/C=C/C(=O)NO)cc1` [Panobinostat] the IC50 [1, 5] was 30.6 nM and the “effect on relative HDR” value [2] was “did not show the same effect”.
`NS(=O)(=O)OC[C@@H]1C[C@@H](n2ccc3c(N[C@H]4CCc5ccccc54)ncnc32)C[C@@H]1O` [Pevonedistat] showed an IC50 [1, 5] of 4740 nM.
`COc1cccc(OCCCN)c1-c1cc(Nc2cnc(C#N)cn2)n[nH]1` [Prexasertib] gave an IC50 [1, 5] of 5.33 nM.
In the case of `CN(C)C(=O)c1cc2cnc(Nc3ccc(N4CCNCC4)cn3)nc2n1C1CCCC1` [Ribociclib], the IC50 [1, 5] is reported as > 10000 nM.
In the case of `C/C=C1\NC(=O)[C@H]2CSSCC/C=C/[C@H](CC(=O)N[C@H](C(C)C)C(=O)N2)OC(=O)[C@H](C(C)C)NC1=O` [Romidepsin], the IC50 ([1]; 72 h) is reported as 16.4 nM and the “effect on relative HDR” value [2] is reported as “strongly inhibited HDR”.
In the case of `CNCc1ccc(-c2[nH]c3cc(F)cc4c3c2CCNC4=O)cc1` [Rucaparib], the IC50 [1, 5] is reported as > 10000 nM, the “preferential activation of HDR over NHEJ in hit validation” value [2] is reported as “strong dose-dependent preferential activation of HDR over NHEJ” and the “effect on the NHEJ and HDR outcomes” value [2] is reported as “inhibited NHEJ and improved HDR”.
In the case of `C[C@@H](NC(=O)c1ncnc(N)c1Cl)c1ncc(C(=O)Nc2cc(C(F)(F)F)c(Cl)cn2)s1` [TAK-580], the IC50 [1, 5] is reported as > 10000 nM.
Compound `CN(C)C/C=C/C(=O)Nc1ccc(C(=O)Nc2cccc(Nc3ncc(Cl)c(-c4c[nH]c5ccccc45)n3)c2)cc1` [THZ1] has an IC50 [1, 6] of 37.1 nM.
Work on `CN(C)C/C=C/C(=O)Nc1ccc(C(=O)N2CCC[C@@H](Nc3ncc(Cl)c(-c4c[nH]c5ccccc45)n3)C2)cc1` [THZ531] yielded an IC50 [1, 5] of 352 nM.
`CC[C@@H]1C(=O)N(C)c2cnc(Nc3ccc(C(=O)N[C@H]4CC[C@H](N5CCN(CC6CC6)CC5)CC4)cc3OC)nc2N1C(C)C` [Volasertib] gave an IC50 [1, 5] of 24.5 nM.
In the case of `Oc1nc(-c2ccc(C(F)(F)F)cc2)nc2c1CSCC2` [XAV-939], the IC50 [1, 5] is reported as > 10000 nM.
With Karonudib the IC50 [1, 6] was 450 nM.
